Data on 22 molecules can be found in ChEMBL document CHEMBL3045375, “Synthesis, characterization and biological activity of some new carbostyril bearing 1H-pyrazole moiety” (2012).

Common to all, as to type: functional
In assay [1] the test system is Aspergillus fumigatus. Nature of the assay: Antifungal activity against Aspergillus fumigatus MTCC 3008 after 48 hr by broth microdilution method. (In broth dilution the organism is exposed to a series of concentrations in liquid medium.)
In assay [2] the test system is Streptococcus pneumoniae. Nature of the assay: Antibacterial activity against Streptococcus pneumoniae MTCC 1936 after 24 hr by broth microdilution method. The conditions noted are these: MTCC 1936, 24 h.
The subject of assay [3] is Bacillus subtilis. In words: Antibacterial activity against Bacillus subtilis MTCC 441 after 24 hr by broth microdilution method.
Assay [4] concerns Escherichia coli. In words: Antibacterial activity against Escherichia coli MTCC 443 after 24 hr by broth microdilution method. The conditions noted are these: MTCC 443, 24 h.
For assay [5], the system named is Candida albicans. In words: Antifungal activity against Candida albicans MTCC 227 after 48 hr by broth microdilution method.

In brackets after ≈: the same amount, converted by molar mass. Bounds are passed on as bounds.

Regarding `CC1(C)CC(=O)C2=C(C1)N(c1ccc(F)cc1)C(=O)CC2c1cn(-c2ccccc2)nc1-c1ccccc1` (centres undefined), the MIC was determined as 500 µg/mL (≈ 989 µM) in assay [1] (MTCC 3008, 48 h); 150 µg/mL (≈ 297 µM) in assay [2]; 0.2 µg/mL (≈ 0.396 µM) in assay [3] (MTCC 441, 24 h); 500 µg/mL (≈ 989 µM) in assay [4]; 500 µg/mL (≈ 989 µM) in assay [5] (MTCC 227, 48 h).

Turning to `CC1(C)CC(=O)C2=C(C1)N(c1ccc(F)cc1)C(=O)CC2c1cn(-c2ccccc2)nc1-c1ccc(F)cc1` (centres undefined), the MIC in assay [1] (MTCC 3008, 48 h) came out at 1000 µg/mL (≈ 1910 µM); in assay [2] it was 500 µg/mL (≈ 955 µM); in assay [3] (MTCC 441, 24 h), 0.5 µg/mL (≈ 0.955 µM); in assay [4] it was 150 µg/mL (≈ 286 µM); in assay [5] (MTCC 227, 48 h), 500 µg/mL (≈ 955 µM).

Turning to `O=C1CCCC2=C1C(c1cn(-c3ccccc3)nc1-c1ccc(F)cc1)CC(=O)N2c1ccc(F)cc1` (centres undefined), the MIC in assay [1] (MTCC 3008, 48 h) is 1000 µg/mL (≈ 2020 µM); in assay [2], 200 µg/mL (≈ 404 µM); in assay [3] (MTCC 441, 24 h) it was 0.1 µg/mL (≈ 0.202 µM); in assay [4] it was 250 µg/mL (≈ 505 µM); in assay [5] (MTCC 227, 48 h), 500 µg/mL (≈ 1010 µM).

Take `CC1(C)S[C@@H]2[C@H](NC(=O)[C@H](N)c3ccccc3)C(=O)N2[C@H]1C(=O)O` [AMPICILLIN]: the MIC worked out at 100 µg/mL (≈ 286 µM) in assay [2]; 0.25 µg/mL (≈ 0.715 µM) in assay [3] (MTCC 441, 24 h); 100 µg/mL (≈ 286 µM) in assay [4].

`COc1ccc(-c2nn(-c3ccccc3)cc2C2CC(=O)N(c3ccc(F)cc3)C3=C2C(=O)CCC3)cc1` (centres undefined): the MIC in assay [1] (MTCC 3008, 48 h) is 500 µg/mL (≈ 985 µM); in assay [2], 250 µg/mL (≈ 493 µM); in assay [3] (MTCC 441, 24 h) it was 0.5 µg/mL (≈ 0.985 µM); in assay [4] it was 100 µg/mL (≈ 197 µM); in assay [5] (MTCC 227, 48 h) it was 1000 µg/mL (≈ 1970 µM).

`CC1(C)CC(=O)C2=C(C1)N(c1ccc(F)cc1)C(=O)CC2c1cn(-c2ccccc2)nc1-c1cccs1` (centres undefined): the MIC in assay [1] (MTCC 3008, 48 h) was determined as 1000 µg/mL (≈ 1950 µM); in assay [2] it was 500 µg/mL (≈ 977 µM); in assay [3] (MTCC 441, 24 h), 0.25 µg/mL (≈ 0.489 µM); in assay [4], 200 µg/mL (≈ 391 µM); in assay [5] (MTCC 227, 48 h), 500 µg/mL (≈ 977 µM).

On to `O=C1CCCC2=C1C(c1cn(-c3ccccc3)nc1-c1ccc(Br)cc1)CC(=O)N2c1ccc(F)cc1` (centres undefined), for which the MIC in assay [1] (MTCC 3008, 48 h) is above 1000 µg/mL; in assay [2], 250 µg/mL (≈ 449 µM); in assay [3] (MTCC 441, 24 h), 0.5 µg/mL (≈ 0.899 µM); in assay [4] it was 62.5 µg/mL (≈ 112 µM); in assay [5] (MTCC 227, 48 h), 500 µg/mL (≈ 899 µM).

As for `CC1(C)CC(=O)C2=C(C1)N(c1ccc(F)cc1)C(=O)CC2c1cn(-c2ccccc2)nc1-c1ccc(Br)cc1` (centres undefined), the MIC in assay [1] (MTCC 3008, 48 h) was 100 µg/mL (≈ 171 µM); in assay [2], 250 µg/mL (≈ 428 µM); in assay [3] (MTCC 441, 24 h), 0.5 µg/mL (≈ 0.855 µM); in assay [4] it was 500 µg/mL (≈ 855 µM); in assay [5] (MTCC 227, 48 h), 100 µg/mL (≈ 171 µM).

For the molecule `Cc1ccc(-c2nn(-c3ccccc3)cc2C2CC(=O)N(c3ccc(F)cc3)C3=C2C(=O)CCC3)cc1` (centres undefined), the MIC in assay [1] (MTCC 3008, 48 h) is 500 µg/mL (≈ 1020 µM); in assay [2], 100 µg/mL (≈ 203 µM); in assay [3] (MTCC 441, 24 h) it was 0.25 µg/mL (≈ 0.509 µM); in assay [4] it was 250 µg/mL (≈ 509 µM); in assay [5] (MTCC 227, 48 h) it was 1000 µg/mL (≈ 2030 µM).

`O=C1CCCC2=C1C(c1cn(-c3ccccc3)nc1-c1ccc([N+](=O)[O-])cc1)CC(=O)N2c1ccc(F)cc1` (centres undefined): the MIC in assay [1] (MTCC 3008, 48 h) is 1000 µg/mL (≈ 1910 µM); in assay [2] it was 100 µg/mL (≈ 191 µM); in assay [3] (MTCC 441, 24 h), 0.2 µg/mL (≈ 0.383 µM); in assay [4], 62.5 µg/mL (≈ 120 µM); in assay [5] (MTCC 227, 48 h) it was 500 µg/mL (≈ 957 µM).

For `COc1ccc(-c2nn(-c3ccccc3)cc2C2CC(=O)N(c3ccc(F)cc3)C3=C2C(=O)CC(C)(C)C3)cc1` (centres undefined), the MIC in assay [1] (MTCC 3008, 48 h) came out at 1000 µg/mL (≈ 1870 µM); in assay [2] it was 100 µg/mL (≈ 187 µM); in assay [3] (MTCC 441, 24 h), 0.2 µg/mL (≈ 0.373 µM); in assay [4] it was 250 µg/mL (≈ 467 µM); in assay [5] (MTCC 227, 48 h) it was 1000 µg/mL (≈ 1870 µM).

Regarding `COC1=CC(=O)C[C@@H](C)[C@]12Oc1c(Cl)c(OC)cc(OC)c1C2=O` [GRISEOFULVIN], the MIC in assay [1] (MTCC 3008, 48 h) is 100 µg/mL (≈ 283 µM); in assay [5] (MTCC 227, 48 h) it was 500 µg/mL (≈ 1420 µM).

Regarding `O=C1CCCC2=C1C(c1cn(-c3ccccc3)nc1-c1ccccc1)CC(=O)N2c1ccc(F)cc1` (centres undefined), the MIC in assay [1] (MTCC 3008, 48 h) is above 1000 µg/mL; in assay [2], 500 µg/mL (≈ 1050 µM); in assay [3] (MTCC 441, 24 h), 0.5 µg/mL (≈ 1.05 µM); in assay [4], 500 µg/mL (≈ 1050 µM); in assay [5] (MTCC 227, 48 h) it was above 1000 µg/mL.

Regarding `CC1(C)CC(=O)C2=C(C1)N(c1ccc(F)cc1)C(=O)CC2c1cn(-c2ccccc2)nc1-c1ccc(Cl)cc1` (centres undefined), the MIC in assay [1] (MTCC 3008, 48 h) came to 500 µg/mL (≈ 926 µM); in assay [2], 250 µg/mL (≈ 463 µM); in assay [3] (MTCC 441, 24 h) it was 0.15 µg/mL (≈ 0.278 µM); in assay [4], 50 µg/mL (≈ 92.6 µM); in assay [5] (MTCC 227, 48 h) it was 1000 µg/mL (≈ 1850 µM).

As for `O=C1CCCC2=C1C(c1cn(-c3ccccc3)nc1-c1ccc(Cl)cc1)CC(=O)N2c1ccc(F)cc1` (centres undefined), the MIC is above 1000 µg/mL in assay [1] (MTCC 3008, 48 h); 250 µg/mL (≈ 488 µM) in assay [2]; 0.25 µg/mL (≈ 0.488 µM) in assay [3] (MTCC 441, 24 h); 100 µg/mL (≈ 195 µM) in assay [4]; 500 µg/mL (≈ 977 µM) in assay [5] (MTCC 227, 48 h).

As for NYSTATIN, the MIC in assay [1] and in assay [5] was 100 µg/mL each time.

Regarding `CC1(C)CC(=O)C2=C(C1)N(c1ccc(F)cc1)C(=O)CC2c1cn(-c2ccccc2)nc1-c1ccc([N+](=O)[O-])cc1` (centres undefined), the MIC amounted to 1000 µg/mL (≈ 1820 µM) in assay [1] (MTCC 3008, 48 h); 250 µg/mL (≈ 454 µM) in assay [2]; 0.25 µg/mL (≈ 0.454 µM) in assay [3] (MTCC 441, 24 h); 100 µg/mL (≈ 182 µM) in assay [4]; 1000 µg/mL (≈ 1820 µM) in assay [5] (MTCC 227, 48 h).

Take `O=C(O)c1cn(C2CC2)c2cc(N3CCNCC3)c(F)cc2c1=O` [CIPROFLOXACIN]: the MIC is 50 µg/mL (≈ 151 µM) in assay [2]; 0.05 µg/mL (≈ 0.151 µM) in assay [3] (MTCC 441, 24 h); 25 µg/mL (≈ 75.4 µM) in assay [4].

For the molecule `O=C1CCCC2=C1C(c1cn(-c3ccccc3)nc1-c1cccs1)CC(=O)N2c1ccc(F)cc1` (centres undefined), the MIC in assay [1] (MTCC 3008, 48 h) amounted to 1000 µg/mL (≈ 2070 µM); in assay [2], 200 µg/mL (≈ 414 µM); in assay [3] (MTCC 441, 24 h), 0.25 µg/mL (≈ 0.517 µM); in assay [4], 100 µg/mL (≈ 207 µM); in assay [5] (MTCC 227, 48 h), 500 µg/mL (≈ 1030 µM).

For the molecule `O=C(N[C@H](CO)[C@H](O)c1ccc([N+](=O)[O-])cc1)C(Cl)Cl` [CHLORAMPHENICOL], the MIC in assay [2] turned out to be 50 µg/mL (≈ 155 µM); in assay [3] (MTCC 441, 24 h), 0.05 µg/mL (≈ 0.155 µM); in assay [4] it was 50 µg/mL (≈ 155 µM).

In the case of GENTAMICIN, in assay [3], inhibition of growth (MIC) required 0.001 µg/mL.

Turning to `Cc1ccc(-c2nn(-c3ccccc3)cc2C2CC(=O)N(c3ccc(F)cc3)C3=C2C(=O)CC(C)(C)C3)cc1` (centres undefined), the MIC in assay [1] (MTCC 3008, 48 h) was 500 µg/mL (≈ 962 µM); in assay [2] it was 100 µg/mL (≈ 192 µM); in assay [3] (MTCC 441, 24 h), 0.5 µg/mL (≈ 0.962 µM); in assay [4] it was 500 µg/mL (≈ 962 µM); in assay [5] (MTCC 227, 48 h), 500 µg/mL (≈ 962 µM).

The MIC is the lowest concentration that inhibits growth of the organism.
